This note sets out measurements from patent US8124356B2, “Methods of purifying zsig33” (ZymoGenetics, Inc., priority 1999, dated 2012).

For assay [1], the system named is duodenum, jejunum, kidney and other harvested tissues. The assay can be described thus: Binding studies of FITC-labeled zsig33 peptides in situ (tail vein injection, fluorescent microscopy of tissue sections). Format: in vivo, Balb C male mice. The following applies: FITC-labeled peptide, 0.5 ml (0.5 mg) tail vein, circulated 15 minutes, microscopy at 495 nm. The procedure:
Ten week old Balb C male mice were anesthetized via intramuscular injection and tested for binding of zsig33 peptides in vivo.
Two peptides were tested: the first peptide, zsig33-1, (See Example 4) consisted of residues 24 to 37 of SEQ ID NO:2, and the second peptide, zsig33-2, consisted of residues 24 to 41 of SEQ ID NO:2. A single glycine was used as a negative control. Additionally, a “scrambled” negative control consisting of residues the first peptide which had been rearranged (SEQ ID NO:15) was also tested. The peptides and controls were coupled to fluorescein isothiocyantate (FITC, Molecular Probes, Eugene, Oreg.) in the following manner: The peptides, glycine control and FITC were dissolved in 0.1 M sodium bicarbonate at pH 9.0 to a concentration of 2.0 mg/ml for the peptides and glycine control and 5 mg/ml for FITC, avoiding exposure of the FITC to strong light. […] The buffer was changed daily and unbound FITC in the post-dialyzed buffer was measured by HPLC. […] Peptide- or glycine-bound FITC was determined by measuring the absorbance of the dialyzed FITC-bound material at 498 nm and dividing by the extinction coefficient of fluorescein, […]. The molar ratio of fluorescein to peptide (mole FITC/mole peptide) was then determined. […]

The test system of assay [2] is antral portion of the stomach. Description: Effects on gastrointestinal contractility (transducing crystals on antral portion of the stomach). It is filed as in vivo, Sprague-Dawley rats. The protocol: Two male Sprague-Dawley rats, approximately 12 weeks old (Harlan, Indianapolis, Ind.) were anesthetized with urethane and their stomachs were exposed through a small abdominal incision. Two 2.4 mm transducing crystals (Sonometrics, Ontario, Canada) were placed on the antral portion of the stomach such that circular contractions could be monitored as a change in the distance between the two crystals. The crystals were attached with VETBOND TISSUE ADHESIVE (3M, St. Paul, Minn.).
10 ml of norepinephrine (NE) at 1 mM caused a reduction in the distance between the two crystals. The amplitude of the NE-induced decrease was approximately 50% of the acetylcholine-induced increase in distance. Both responses were transient.
A negative control of 10 ml of phosphate buffer solution (PBS) applied topically between the crystals had no effect.
A 14 amino acid zsig33 peptide (zsig33-1, as shown in Example 4) was dissolved in PBS and 10 ml was applied topically for a final concentration of 1 mg, 10 mg or 100 mg.

Assay [3] is described as follows: Effects on glucose absorption after oral glucose challenge. Format: in vivo, ob/ob mice. To be noted: 100 mg orally, 30 minutes prior to an oral glucose challenge (0.5 ml of 25% glucose), serum glucose. The protocol:
Eight female ob/ob mice, approximately 6 weeks old (Jackson Labs, Bar Harbor, Me.) were adapted to a 4 hour daily feeding schedule for two weeks. After two weeks on the feeding schedule, the mice were given 100 mg of a zsig33 peptide (zsig33-1, as shown in Example 4) in 100 ml sterile 0.1% BSA by oral gavage, immediately after their eating period (post-prandially). Thirty minutes later, the mice were challenged orally with a 0.5 ml volume of 25% glucose. Retroorbital bleeds were done to determine serum glucose levels. Blood was drawn prior to zsig33 dosing, prior to oral glucose challenge, and at 1, 2, 4, and 20 hours following the glucose challenge.

Assay [4] can be described thus: Effects on body weight, food intake and glucose clearance. Format: in vivo, ob/ob mice. To be noted: 1 mg/mouse orally twice daily for fourteen days, versus scrambled peptide. The protocol:
Sixteen female ob/ob mice, 8 weeks old, (Jackson Labs, Bar Harbor, Me.) were adapted to a special 4 hour daily feeding schedule for two weeks. The were fed ad libitum from 7:30-11:30 am daily. After two weeks on the feeding schedule, the mice were divided into two groups of 8. One group was given 1.0 mg/mouse of zsig33-1 (14 amino acid peptide) and the other vehicle (a 14 amino acid scrambled sequence peptide) in […] sterile 0.1% BSQA by oral gavage just prior to receiving food, and at the end of the 4 hour feeding period. The mice were […] twice daily for fourteen days, during which time food intake and body weight was measured daily. On day 14, immediately after the second oral gavage of the zsig33-1 peptide, the mice were challenged orally with an 0.5 ml volume of 25% glucose. Retro-orbital bleeds were done to determine serum glucose levels immediately prior to administration of the zsig33-1 peptide or vehicle (t=30 min.), and also at 0, 1, 2, and 4 hours following the glucose challenge.

Assay [5] concerns stomachs of fasted male Sprague-Dawley rats. The assay can be described thus: Effects on gastric emptying (transit of phenol red through the stomach). Format: in vivo. To be noted: 1 μg applied topically to the stomach five minutes after gavage, measured 30 minutes after the gavage. The protocol:
The effect of topically applied zsig33 peptide (amino acid 24 to 37 of SEQ ID NO: 2) on the transit of phenol red through the stomachs of fasted male Sprague-Dawley rats (Harlan, Indianapolis, Ind.) was evaluated. The rats (6 animals, 8 weeks old) were fasted 24 hrs prior to being anesthetized with urethane (0.5 ml/100 grams of 25% solution). After anesthetizing, the animals were orally gavaged with 1 ml of Phenol Red solution (50 mg/ml in 2% methylcellulose solution).
The stomach of each animal was exposed through a small abdominal incision and either 1 μg zsig33 peptide or a 14 amino acid control of a scrambled sequence peptide was applied topically to the stomach five minutes following the gavage. The amount of Phenol Red remaining in the stomach was determined by measuring optical density of the extracted stomach contents 30 minutes after the gavage.

For the compound “zsig33-2: peptide consisting of residues 24 to 41 of SEQ ID NO:2 (GSSFLSPEHQRVQQRKES; listed as Homo sapiens)”, the “fluorescence in duodenum, jejunum and in the collecting ducts and convoluted tubules of the kidney compared to the glycine and "scrambled" controls” value in assay [1] is on record as “increased fluorescence”.

With `NC[C@H](O)c1ccc(O)c(O)c1` [norepinephrine, reference compound], the “amplitude of the NE-induced decrease relative to the acetylcholine-induced increase in distance” value in assay [2] (10 ml of 1 mM applied topically) is recorded as “approximately 50%”. The “change in the distance between the two crystals” value in assay [2] (10 ml of 1 mM applied topically to the stomach, anesthetized rats) was “reduction”.

For the compound “zsig33-1: 14 amino acid peptide corresponding to amino acid residue 24 (Gly) to amino acid residue 37 (Gln) of SEQ ID NO: 2 (GSSFLSPEHQRVQQ; listed as Homo sapiens)”, in assay [1], the “fluorescence in duodenum, jejunum and in the collecting ducts and convoluted tubules of the kidney compared to the glycine and "scrambled" controls” value is “increased fluorescence”. Besides, the post-prandial glucose absorption entry in assay [3] is “enhanced post-prandial glucose absorption”. In assay [2] (10 ml in PBS applied topically, 1 mg), the “change in crystal distance (contractions)” value was “sustained, rhythmic increase and decrease in crystal distance”. The “response in rate and amplitude of the contractions” value in assay [2] (10 ml in PBS applied topically, 10 mg and 100 mg, compared with 1 mg) was “enhanced responses in both rate and amplitude”. Moreover, in assay [4], the daily body weight entry was “no affect” and the daily food intake result was “no affect”. For the same compound, the “reduction of the amount of Phenol Red remaining in the stomach compared to a scrambled peptide” value in assay [5] is “approximately 25%”.
